# Legend:
# Assay type in all cases: cell-based
# Citrobacter diversus = test: MIC against Gram-negative bacteria: Citrobacter diversus
# Summary of the method: (§1)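 Purified recombinant human EGF domain proteins are tested by broth dilution in LB against a 5×10^5 CFU/mL inoculum, with two-fold serial dilutions run in triplicate. Plates are incubated at 37° C with shaking, and the MIC is read as the lowest protein concentration without growth.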
# Serratia marcescens = test: MIC against Gram-negative bacteria: Serratia marcescens
# Summary of the method: as §1
# Aeromonas hydrophila = test: MIC against Gram-negative bacteria: Aeromonas hydrophila
# Summary of the method: as §1
# Proteus vulgaris = test: MIC against Gram-negative bacteria: Proteus vulgaris
# Summary of the method: as §1
# Enterobacter cloacae = test: MIC against Gram-negative bacteria: Enterobacter cloacae
# Summary of the method: as §1
# Klebsiella pneumonia = test: MIC against Gram-negative bacteria: Klebsiella pneumonia
# Summary of the method: as §1
# E. coli DH5α = test: Antibacterial activity: MIC and growth curve against E. coli DH5α in 96-well plate; conditions: minimal inhibitory concentration against E. coli DH5α; 96-well plate, 5×10^5 CFU/mL, 37° C., judged after 8 h
# Summary of the method: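 MIC taken as lowest protein level with no bacterial growth, tracked by A600 every 30 min during 37 °C, 175 rpm culture. Two-fold protein series 50-12.5 μg/mL final, triplicate wells, against 5×10^5 CFU/mL of LB-washed mid-log cells.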
# Moraxella catarrhalis = test: MIC against Gram-negative bacteria: Moraxella catarrhalis
# Summary of the method: as §1
# Pseudomonas aeruginosa = test: MIC against Gram-negative bacteria: Pseudomonas aeruginosa
# Summary of the method: as §1
# E. coli BL21 = test: MIC against Gram-negative bacteria: E. coli BL21; conditions: for MIC (μg/mL) E. coli BL21 / MIC: E. coli BL21
# Summary of the method: as §1
# Proteus mirabilis = test: MIC against Gram-negative bacteria: Proteus mirabilis
# Summary of the method: as §1
# [1] = C. diversus, 10 h cultivation at 37° C., 5×10^5 CFU/mL
# [2] = S. marcescens, 10 h cultivation at 37° C., 5×10^5 CFU/mL
# [3] = A. hydrophila, 10 h cultivation at 37° C., 5×10^5 CFU/mL
# [4] = P. vulgaris, 10 h cultivation at 37° C., 5×10^5 CFU/mL
# [5] = E. cloacae, 10 h cultivation at 37° C., 5×10^5 CFU/mL
# [6] = K. pneumonia, 10 h cultivation at 37° C., 5×10^5 CFU/mL
# [7] = M. catarrhalis, 10 h cultivation at 37° C., 5×10^5 CFU/mL
# [8] = P. aeruginosa, 10 h cultivation at 37° C., 5×10^5 CFU/mL
# [9] = 10 h cultivation at 37° C., 5×10^5 CFU/mL
# [10] = P. mirabilis, 10 h cultivation at 37° C., 5×10^5 CFU/mL
# [11] = 96-well plate, 5×10^5 CFU/mL, 37° C., 10 h
substance,measurement,setting,value
PRT215 (YTQCTDGYEWDPVRQQCKDIDECDIVPDACKGGMKCVNHYGGYLCL; listed as Homo sapiens),MIC (μg/mL) C. diversus,Citrobacter diversus; [1],25 µg/mL
same,MIC (μg/mL) S. marcescens,Serratia marcescens; [2],12.5 µg/mL
same,MIC (μg/mL) A. hydrophila,Aeromonas hydrophila; [3],12.5 µg/mL
same,MIC (μg/mL) P. vulgaris,Proteus vulgaris; [4],12.5 µg/mL
same,MIC (μg/mL) E. cloacae,Enterobacter cloacae; [5],25 µg/mL
same,MIC (μg/mL) K. pneumonia,Klebsiella pneumonia; [6],100 µg/mL
same,MIC,E. coli DH5α,25 µg/mL
same,MIC (μg/mL) M. catarrhalis,Moraxella catarrhalis; [7],12.5 µg/mL
same,MIC (μg/mL) P. aeruginosa,Pseudomonas aeruginosa; [8],25 µg/mL
same,MIC (μg/mL) E. coli BL21,E. coli BL21; [9],12.5 µg/mL
same,MIC (μg/mL) P. mirabilis,Proteus mirabilis; [10],25 µg/mL
PRT599 (CECDPDGTISGGICVSHSDPALGSVAGQCLCKENVEGAKCDQCKPNHYGLSATDPLGCQP; listed as Homo sapiens),MIC C. diversus,Citrobacter diversus; [11],50 µg/mL
same,MIC S. marcescens,Serratia marcescens; [11],50 µg/mL
same,MIC A. hydrophila,Aeromonas hydrophila; [11],12.5 µg/mL
same,MIC P. vulgaris,Proteus vulgaris; [11],12.5 µg/mL
same,MIC E. cloacae,Enterobacter cloacae; [11],50 µg/mL
same,MIC K. pneumonia,Klebsiella pneumonia; [11],12.5 µg/mL
same,MIC,E. coli DH5α,12.5 µg/mL
same,MIC M. catarrhalis,Moraxella catarrhalis; [11],12.5 µg/mL
same,MIC P. aeruginosa,Pseudomonas aeruginosa; [11],50 µg/mL
same,MIC E. coli BL21,E. coli BL21; [11],25 µg/mL
same,MIC P. mirabilis,Proteus mirabilis; [11],50 µg/mL
PRT421 (DQDECLLLPGELCQHLCINTVGSYHCACFPGFSLQDDGRTCR; listed as Homo sapiens),MIC,Citrobacter diversus; [1],12.5 µg/mL
same,MIC,Serratia marcescens; [2],25 µg/mL
same,MIC,Aeromonas hydrophila; [3],50 µg/mL
same,MIC,Proteus vulgaris; [4],12.5 µg/mL
same,MIC,Enterobacter cloacae; [5],12.5 µg/mL
same,MIC,Klebsiella pneumonia; [6],50 µg/mL
same,MIC,E. coli DH5α,12.5 µg/mL
same,MIC,Moraxella catarrhalis; [7],50 µg/mL
same,MIC,Pseudomonas aeruginosa; [8],12.5 µg/mL
same,MIC,E. coli BL21; [9],50 µg/mL
same,MIC,Proteus mirabilis; [10],25 µg/mL
PRT152 (LPCPGGTERPCGGYGQCEGEGTRGGSGHCDCQAGYGGEACG; listed as Homo sapiens),MIC (μg/mL) C. diversus,Citrobacter diversus; [1],25 µg/mL
same,MIC (μg/mL) S. marcescens,Serratia marcescens; [2],12.5 µg/mL
same,MIC (μg/mL) A. hydrophila,Aeromonas hydrophila; [3],12.5 µg/mL
same,MIC (μg/mL) P. vulgaris,Proteus vulgaris; [4],12.5 µg/mL
same,MIC (μg/mL) E. cloacae,Enterobacter cloacae; [5],12.5 µg/mL
same,MIC (μg/mL) K. pneumonia,Klebsiella pneumonia; [6],12.5 µg/mL
same,MIC,E. coli DH5α,12.5 µg/mL
same,MIC (μg/mL) M. catarrhalis,Moraxella catarrhalis; [7],12.5 µg/mL
same,MIC (μg/mL) P. aeruginosa,Pseudomonas aeruginosa; [8],12.5 µg/mL
same,MIC (μg/mL) E. coli BL21,E. coli BL21; [9],12.5 µg/mL
same,MIC (μg/mL) P. mirabilis,Proteus mirabilis; [10],25 µg/mL
PRT639 (DADECLLFGQEICKNGFCLNTRPGYECYCKQGTYYDPVKLQCF; listed as Homo sapiens),MIC C. diversus,Citrobacter diversus; [11],25 µg/mL
same,MIC S. marcescens,Serratia marcescens; [11],25 µg/mL
same,MIC A. hydrophila,Aeromonas hydrophila; [11],50 µg/mL
same,MIC P. vulgaris,Proteus vulgaris; [11],50 µg/mL
same,MIC E. cloacae,Enterobacter cloacae; [11],12.5 µg/mL
same,MIC K. pneumonia,Klebsiella pneumonia; [11],50 µg/mL
same,MIC,E. coli DH5α,12.5 µg/mL
same,MIC M. catarrhalis,Moraxella catarrhalis; [11],12.5 µg/mL
same,MIC P. aeruginosa,Pseudomonas aeruginosa; [11],12.5 µg/mL
same,MIC E. coli BL21,E. coli BL21; [11],50 µg/mL
same,MIC P. mirabilis,Proteus mirabilis; [11],25 µg/mL
PRT921 (NIDDCASAACFHGATCHDRVASFYCECPHGRTGLLCH; listed as Homo sapiens),MIC,"Citrobacter diversus; C. diversus, 10 h cultivation at 37° C.",12.5 µg/mL
same,MIC,"Serratia marcescens; S. marcescens, 10 h cultivation at 37° C.",12.5 µg/mL
same,MIC,"Aeromonas hydrophila; A. hydrophila, 10 h cultivation at 37° C.",25 µg/mL
same,MIC,"Proteus vulgaris; P. vulgaris, 10 h cultivation at 37° C.",25 µg/mL
same,MIC,"Enterobacter cloacae; E. cloacae, 10 h cultivation at 37° C.",12.5 µg/mL
same,MIC,"Klebsiella pneumonia; K. pneumonia, 10 h cultivation at 37° C.",12.5 µg/mL
same,MIC,E. coli DH5α,12.5 µg/mL
same,MIC,"Moraxella catarrhalis; M. catarrhalis, 10 h cultivation at 37° C.",25 µg/mL
same,MIC,"Pseudomonas aeruginosa; P. aeruginosa, 10 h cultivation at 37° C.",25 µg/mL
same,MIC,E. coli BL21; 10 h cultivation at 37° C.,12.5 µg/mL
same,MIC,"Proteus mirabilis; P. mirabilis, 10 h cultivation at 37° C.",12.5 µg/mL
PRT44 (LYAQVSQSKPCERTGSCFSGRCVNSTCLCDPGWVGDQCQ; listed as Homo sapiens),MIC (μg/mL) C. diversus,"Citrobacter diversus; Citrobacter diversus, 96-well plate, 5×10^5 CFU/mL, 37° C., 10 h",12.5 µg/mL
same,MIC (μg/mL) S. marcescens,"Serratia marcescens; Serratia marcescens, 96-well plate, 5×10^5 CFU/mL, 37° C., 10 h",12.5 µg/mL
same,MIC (μg/mL) A. hydrophila,"Aeromonas hydrophila; Aeromonas hydrophila, 96-well plate, 5×10^5 CFU/mL, 37° C., 10 h",25 µg/mL
same,MIC (μg/mL) P. vulgaris,"Proteus vulgaris; Proteus vulgaris, 96-well plate, 5×10^5 CFU/mL, 37° C., 10 h",25 µg/mL
same,MIC (μg/mL) E. cloacae,"Enterobacter cloacae; Enterobacter cloacae, 96-well plate, 5×10^5 CFU/mL, 37° C., 10 h",12.5 µg/mL
same,MIC (μg/mL) K. pneumonia,"Klebsiella pneumonia; Klebsiella pneumonia, 96-well plate, 5×10^5 CFU/mL, 37° C., 10 h",12.5 µg/mL
same,MIC,E. coli DH5α,12.5 µg/mL
same,MIC (μg/mL) M. catarrhalis,"Moraxella catarrhalis; Moraxella catarrhalis, 96-well plate, 5×10^5 CFU/mL, 37° C., 10 h",25 µg/mL
same,MIC (μg/mL) P. aeruginosa,"Pseudomonas aeruginosa; Pseudomonas aeruginosa, 96-well plate, 5×10^5 CFU/mL, 37° C., 10 h",25 µg/mL
same,MIC (μg/mL) E. coli BL21,E. coli BL21; [11],12.5 µg/mL
same,MIC (μg/mL) P. mirabilis,"Proteus mirabilis; Proteus mirabilis, 96-well plate, 5×10^5 CFU/mL, 37° C., 10 h",50 µg/mL

# — US9833497B2, “Human originated EGF domain proteins and use of the same” (CHENGDU SOURCEBIO LIMITED-LIABILITY COMPANY, priority 2013, dated 2017)
